Test results as given in patent publication US8721963B2, “Cold sterilization of tissue engineering scaffolds with compressed carbon dioxide” (University of South Carolina, priority 2010, dated 2014).

What was measured:
B. atrophaeus spores = conditions: 40° C., 27.58 MPa, 4 hours; cited from earlier work
[1] = test system: Staphylococcus aureus (S. aureus) (ATCC 25923); experiment: Inactivation of S. aureus embedded in model hydrogel by SC-CO2 treatment (plate counting); assay type: cell-based; conditions: 27.6 MPa, 40° C.
Protocol: Staphylococcus aureus (S. aureus) (ATCC 25923) and Escherichia coli (E. coli) (ATCC 15597) were used as test microorganisms embedded in the hydrogel to investigate the bacteriocidal activity of pure SC-CO2 or SC-CO2+H2O2. Suspensions of S. aureus and E. coli were prepared for inoculation of the hydrogel. Cultures of these bacteria were preserved on DifcoTM […] soy agar and stored in Petri dishes inside of a refrigerator at 4° C. A fresh colony was transferred aseptically from the agar culture plate into a culture tube containing 30 g/L of sterile tryptone soy broth (TSB). The bacteria were grown to a logarithmic phase in the TSB at 35° C. for 24 hours (Cappuccino and Sherman 2001). A fresh bacterial culture was prepared before every experiment to ensure cell viability. Both S. aureus and E. coli bacteria suspensions were diluted after incubation to a concentration of approximately 107 colony forming units per milliliter (cfu/mL). A Petroff Hausser counting chamber was used to quantify the cfu count in the diluted samples. Also, a standard plate counting technique was followed to verify the original number of cfu. The final number of S. aureus or E. coli generally ranged from 7.6×106 to 2.3×10^8 cfu/mL. The hydrogel was hydrated with the diluted bacteria suspension of either S. aureus or E. coli. For CO2 sterilization experiments, the model gel was hydrated with the diluted bacteria suspension. Typically, 0.1 g of dry powder (absorption capacity of 200 mL H2O/g) was hydrated with steam autoclaved DI water. The hydrated powder was left overnight inside of a refrigerator at 4° C. About 3 g of the completely incorporated hydrated gel were then transferred into a polyallomer centrifuge tube for the CO2 treatment, to be described subsequently. […] A pulverization procedure was followed to quantify the amount of bacteria in the inoculated hydrogel. Bacteria were dislodged from the gel by pulverizing in a Stomacher 400 Circulator (Seward Ltd., United Kingdom) for 10 minutes at 230 revolutions per minute (rpm). The degree of killing was quantified with a standard plate counting technique. The log reduction of bacteria (S. aureus or E. coli) was calculated with equation (1), [formula] For use as negative controls, a quantified amount of inoculated hydrogel (with either S. aureus or E. coli) in a polyallomer centrifuge tube was immersed in a PolyScience laboratory temperature bath (model 9105) at 40° C. for 4 hours. The inoculated hydrogel was removed from the bath, pulverized in the Stomacher 400, and the degree of killing was quantified using the standard plate counting technique.

[2] = test system: Escherichia coli (E. coli) (ATCC 15597); experiment: Inactivation of E. coli embedded in model hydrogel by SC-CO2 treatment (plate counting); assay type: cell-based; conditions: 27.6 MPa, 40° C., 4 hours
Protocol: Staphylococcus aureus (S. aureus) (ATCC 25923) and Escherichia coli (E. coli) (ATCC 15597) were used as test microorganisms embedded in the hydrogel to investigate the bacteriocidal activity of pure SC-CO2 or SC-CO2+H2O2. Suspensions of S. aureus and E. coli were prepared for inoculation of the hydrogel. Cultures of these bacteria were preserved on DifcoTM […] soy agar and stored in Petri dishes inside of a refrigerator at 4° C. A fresh colony was transferred aseptically from the agar culture plate into a culture tube containing 30 g/L of sterile tryptone soy broth (TSB). The bacteria were grown to a logarithmic phase in the TSB at 35° C. for 24 hours (Cappuccino and Sherman 2001). A fresh bacterial culture was prepared before every experiment to ensure cell viability. […] A Petroff Hausser counting chamber was used to quantify the cfu count in the diluted samples. […] A pulverization procedure was followed to quantify the amount of bacteria in the inoculated hydrogel. […] The degree of killing was quantified with a standard plate counting technique. The log reduction of bacteria (S. aureus or E. coli) was calculated with equation (1), [formula] For use as negative controls, a quantified amount of inoculated hydrogel (with either S. aureus or E. coli) in a polyallomer centrifuge tube was immersed in a PolyScience laboratory temperature bath (model 9105) at 40° C. for 4 hours. […]

[3] = test system: G. stearothermophilus spores; conditions: 40° C., 27.58 MPa, 4 hours; cited from earlier work
B. pumilus spores = conditions: 40° C., 27.58 MPa, 4 hours; cited from earlier work

O=C=O [pure SC-CO2, carbon dioxide]
log reduction of B. atrophaeus spores (B. atrophaeus spores): 6 log
killing of S. aureus ([1]; in hydrogel, 4 hours): Complete killing
D-value (D40) of S. aureus ([1]; in hydrogel): 4.6 min
time required to obtain 6-log reduction of S. aureus ([1]; in hydrogel): about 27.4 minutes
log-reduction of S. aureus ([1]; in hydrogel, 10 minutes): 1.94 log
log-reduction of S. aureus ([1]; in hydrogel, 15 minutes): 3.42 log
log-reduction of S. aureus ([1]; in hydrogel, 20 minutes): 4.13 log
killing of S. aureus ([1]; in hydrogel, 30 minutes): complete kill
killing of S. aureus ([1]; in hydrogel, 60 minutes): complete kill
average log-reduction of S. aureus ([1]; in poly(acrylic acid-co-acrylamide) hydrogel, 4 hours): 7.72 log
killing of E. coli ([2]; in hydrogel): Complete killing
average log-reduction of E. coli ([2]; in poly(acrylic acid-co-acrylamide) hydrogel): 7.93 log
log reduction of G. stearothermophilus spores [3]: 6 log
log reduction of B. pumilus spores (B. pumilus spores): 6 log
